According to publication PMC3608202 (Biochemistry, 2013):

Biological target: Aβ(1–42) oligomers (Homo sapiens, UniProt P05067)
Assay: Short time oligomer dissociation assay
Assay type: biochemical
Settings: 2h; 50 µM, 25 µM and 12.5 µM

Chain of Aβ(1–42) oligomers (P05067 672-713): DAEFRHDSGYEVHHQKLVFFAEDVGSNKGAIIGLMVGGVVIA

Structure (SMILES): O=C(O)c1cc(O)ccc1O [2,5-dihydroxybenzoic acid]
- Oligomer dissociation in short time assay: does result in disassembly
